In publication PMC10184313, “Inhibition of Thiamine Diphosphate-Dependent Enzymes by Triazole-Based Thiamine Analogues” (ACS Medicinal Chemistry Letters, 2023):

molecular target: T1, A. viridans PO (Aerococcus viridans, UniProt A9X9K8); experiment: A. viridans PO inhibitory activity assay (quinoneimine dye); type: biochemical; conditions: [Compound] = 250 μM, [ThDP] = 50 μM
T1 sequence (A9X9K8 1-592): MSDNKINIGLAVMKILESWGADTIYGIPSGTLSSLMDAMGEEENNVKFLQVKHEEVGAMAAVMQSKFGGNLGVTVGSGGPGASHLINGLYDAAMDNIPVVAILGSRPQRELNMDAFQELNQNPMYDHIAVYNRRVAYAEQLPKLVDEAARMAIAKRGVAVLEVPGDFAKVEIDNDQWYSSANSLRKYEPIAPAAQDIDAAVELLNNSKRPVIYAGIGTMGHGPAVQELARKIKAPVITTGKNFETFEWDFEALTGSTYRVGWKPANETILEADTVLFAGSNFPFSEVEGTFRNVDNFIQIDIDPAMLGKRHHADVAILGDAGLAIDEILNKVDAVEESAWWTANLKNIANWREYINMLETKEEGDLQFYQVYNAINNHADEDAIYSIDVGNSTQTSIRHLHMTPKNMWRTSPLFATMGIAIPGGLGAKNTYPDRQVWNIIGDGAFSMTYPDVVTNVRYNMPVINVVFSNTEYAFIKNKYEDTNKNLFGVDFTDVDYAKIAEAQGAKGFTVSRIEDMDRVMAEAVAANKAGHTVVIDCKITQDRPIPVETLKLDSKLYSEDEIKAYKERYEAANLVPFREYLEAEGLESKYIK
Procedure: A. viridans PO inhibitory activity assay. A. viridans PO and horseradish peroxidase were purchased from Sigma. A. viridans PO activity was determined by monitoring appearance of quinoneimine dye at 550 nm using a microplate reader (CLARIOstar) and conducted as described 1 with some modifications.
The percentage inhibition of compounds against A. viridans PO was assayed at a final concentration of 250 µM. The reaction buffer (50 mM KH 2PO4 and 10 mM MgCl 2, pH 5.9) contained 50 µM ThDP (or 125 µM in the competition assay), 10 µM flavin adenine dinucleotide (FAD), 0.15% 4-Aminoantipyrine, 0.3% N-Ethyl-N-(2-hydroxy-3-sulfopropyl)-m-toluidine (EHSPT), 50 µg/mL horseradish peroxidase and 0.35 U/mL A. viridans PO. The reaction mixture was preincubated at 37 °C for 30 min, then reaction was initiated by adding pyruvate to a final concentration of 50 mM. To determine the IC 50, inhibitor concentration was varied (2-1000 µM) with ThDP concentration at 50 µM. 1 unit of PO activity is defined as 1 μmol of hydrogen peroxide produced per minute. The enzyme IC 50 values were calculated as described for the PDHc E1 assay. […]

Row | SMILES | Inhibition (%) PO
1 | COc1ccc(-c2cn(CCCCc3cn(Cc4cnc(C)nc4N)nn3)nn2)cc1 [Compound 17c] | < 20%
2 | Cc1ncc(Cn2cc(CCn3cc(-c4ccc(F)cc4)nn3)nn2)c(N)n1 [Compound 16a] | < 20%
3 | Cc1ncc(Cn2cc(CCNS(=O)(=O)C(F)(F)F)nn2)c(N)n1 [Compound 18a] | < 20%
4 | Cc1ncc(Cn2cc(CCC(=O)Nc3ccccc3N)nn2)c(N)n1 [Compound 26a] | < 20%
5 | Cc1ncc(Cn2cc(CCCCNS(=O)(=O)C(F)(F)F)nn2)c(N)n1 [Compound 18c] | 22 ± 4%
6 | Cc1ncc(Cn2cc(CCCn3cc(-c4ccccc4)nn3)nn2)c(N)n1 [Compound 15b] | < 20%
7 | Cc1ncc(Cn2cc(CCO)nn2)c(N)n1 [Compound 9a] | < 20%
8 | COc1cccc(C(=O)NCCCCc2cn(Cc3cnc(C)nc3N)nn2)c1 [Compound 21c] | < 20%
9 | Cc1ncc(Cn2cc(CCCO)nn2)c(N)n1 [Compound 9b] | < 20%

same assay, conditions: increased ThDP: [Compound] = 250 μM, [ThDP] = 125 μM

Row | SMILES | Inhibition (%) PO
10 | COc1ccc(-c2cn(CCCCc3cn(Cc4cnc(C)nc4N)nn3)nn2)cc1 [Compound 17c] | <20%
11 | Cc1ncc(Cn2cc(CCn3cc(-c4ccc(F)cc4)nn3)nn2)c(N)n1 [Compound 16a] | <20%
12 | Cc1ncc(Cn2cc(CCCn3cc(-c4ccccc4)nn3)nn2)c(N)n1 [Compound 15b] | <20%

molecular target: T2, S. cerevisiae PDC (Saccharomyces cerevisiae, UniProt P06169); experiment: S. cerevisiae PDC inhibitory activity assay (DCPIP reduction); type: biochemical; conditions: [Compound] = 1.5 mM, [ThDP] = 0.3 mM; compounds insufficiently soluble were excluded
T2 construct: purchased Sigma
T2 sequence (P06169 2-563 limits assumed): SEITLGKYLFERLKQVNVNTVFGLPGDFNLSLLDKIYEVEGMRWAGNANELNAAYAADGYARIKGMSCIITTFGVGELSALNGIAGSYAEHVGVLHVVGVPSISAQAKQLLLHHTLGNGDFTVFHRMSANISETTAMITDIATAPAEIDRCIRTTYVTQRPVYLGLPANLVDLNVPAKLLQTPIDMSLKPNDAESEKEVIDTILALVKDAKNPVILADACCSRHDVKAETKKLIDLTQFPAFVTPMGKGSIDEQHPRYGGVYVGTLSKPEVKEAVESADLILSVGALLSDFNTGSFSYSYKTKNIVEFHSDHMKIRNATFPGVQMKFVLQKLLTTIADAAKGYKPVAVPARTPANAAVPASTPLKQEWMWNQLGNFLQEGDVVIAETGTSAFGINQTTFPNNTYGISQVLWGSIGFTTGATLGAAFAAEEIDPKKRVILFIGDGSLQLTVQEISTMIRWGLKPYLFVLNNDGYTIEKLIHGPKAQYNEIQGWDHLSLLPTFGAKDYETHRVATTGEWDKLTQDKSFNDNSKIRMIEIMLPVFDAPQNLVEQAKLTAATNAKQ
Procedure: S. cerevisiae PDC inhibitory activity assay. S. cerevisiae PDC was purchased from Sigma. Its activity was determined by monitoring DCPIP reduction at 600 nm using a microplate reader (CLARIOstar) and conducted as described 1,2 with some modifications. The percentage inhibition of compounds was assayed at a final concentration of 1500 µM. The reaction buffer (50 mM KH 2PO4 and 1 mM MgCl 2, pH 7) contained 300 µM ThDP (or 750 µM in the competition assay), 0.27 mM DCPIP, and 0.15 mg/ml S. cerevisiae PDC. The reaction mixture was preincubated at 37 °C for 60 min, then reaction was initiated by adding pyruvate to a final concentration of 70 mM. Specific activity was calculated using the molar extinction coefficient of DCPIP, 21 mM -1 cm -1.3 […]

Row | SMILES | Inhibition (%) Yeast PDC
13 | COc1ccc(-c2cn(CCCCc3cn(Cc4cnc(C)nc4N)nn3)nn2)cc1 [Compound 17c] | Insoluble
14 | Cc1ncc(Cn2cc(CCn3cc(-c4ccc(F)cc4)nn3)nn2)c(N)n1 [Compound 16a] | Insoluble
15 | Cc1ncc(Cn2cc(CCCCNS(=O)(=O)C(F)(F)F)nn2)c(N)n1 [Compound 18c] | Insoluble
16 | Cc1ncc(Cn2cc(CCCn3cc(-c4ccccc4)nn3)nn2)c(N)n1 [Compound 15b] | Insoluble
17 | COc1cccc(C(=O)NCCCCc2cn(Cc3cnc(C)nc3N)nn2)c1 [Compound 21c] | Insoluble

same assay, conditions: [Compound] = 1.5 mM, [ThDP] = 0.3 mM; compounds insufficiently soluble were excluded; read-out: Inhibition (%) Yeast PDC

Row | SMILES | inhibition at 1500 µM
18 | Cc1ncc(Cn2cc(CCNS(=O)(=O)C(F)(F)F)nn2)c(N)n1 [Compound 18a] | < 20%
19 | Cc1ncc(Cn2cc(CCC(=O)Nc3ccccc3N)nn2)c(N)n1 [Compound 26a] | < 20%
20 | Cc1ncc(Cn2cc(CCO)nn2)c(N)n1 [Compound 9a] | 37 ± 3%
21 | Cc1ncc(Cn2cc(CCCO)nn2)c(N)n1 [Compound 9b] | 35 ± 2%

same assay, conditions: increased ThDP: [Compound] = 1500 μM, [ThDP] = 750 μM; compounds insufficiently soluble were excluded

Row | SMILES | Inhibition (%) Yeast PDC
22 | COc1ccc(-c2cn(CCCCc3cn(Cc4cnc(C)nc4N)nn3)nn2)cc1 [Compound 17c] | Insoluble
23 | Cc1ncc(Cn2cc(CCn3cc(-c4ccc(F)cc4)nn3)nn2)c(N)n1 [Compound 16a] | Insoluble
24 | Cc1ncc(Cn2cc(CCCn3cc(-c4ccccc4)nn3)nn2)c(N)n1 [Compound 15b] | Insoluble

molecular target: T3, porcine PDHc E1 (Sus scrofa, UniProt P29804); experiment: PDHc E1 inhibitory activity assay (DCPIP reduction); type: biochemical; conditions: not given
T3 sequence (P29804 31-390): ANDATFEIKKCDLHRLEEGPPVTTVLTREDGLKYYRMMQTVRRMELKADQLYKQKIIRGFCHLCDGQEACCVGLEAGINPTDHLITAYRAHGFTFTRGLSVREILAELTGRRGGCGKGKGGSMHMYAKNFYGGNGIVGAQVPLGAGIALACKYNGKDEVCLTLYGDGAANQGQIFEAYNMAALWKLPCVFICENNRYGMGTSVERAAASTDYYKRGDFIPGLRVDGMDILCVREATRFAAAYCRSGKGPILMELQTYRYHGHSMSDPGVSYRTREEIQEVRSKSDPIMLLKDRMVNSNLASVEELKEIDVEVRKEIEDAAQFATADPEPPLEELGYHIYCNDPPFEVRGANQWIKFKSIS
Procedure: Enzyme assays – Methods and Results S1
Ligand efficiencies – Calculations S3 […]
Enzyme assays (Methods and Results)
PDHc E1 inhibitory activity assay. Porcine PDHc E1 was purchased from Sigma. Its activity was […]
determined by monitoring 2,6-dichlorophenolindophenol (DCPIP) reduction at 600 nm using a […]
microplate reader (CLARIOstar) and conducted as described 1,2 with some modifications. The percentage inhibition of compounds against porcine PDHc E1 was assayed at a final concentration of 250 µM. The reaction buffer (50 mM KH 2PO4 and 1 mM MgCl 2, pH 7) contained 50 µM ThDP (or 125 µM in the competition assay), 0.25 mM DCPIP, and 2 mg/ml porcine PDHc E1. The reaction mixture […]
was preincubated at 37 °C for 30 min, then the reaction was initiated by adding pyruvate to a final […]
concentration of 50 mM. To determine the half-maximal inhibitory concentration (IC 50 ), ThDP […]
concentration was lowered to 10 µM, and inhibitor concentration was varied (0.4-200 µM). Specific […]
activity was calculated using the molar extinction coefficient of DCPIP, 21 mM -1 cm-1.3 The enzyme […]
IC50 values were calculated from non-linear regression curve fitting using GraphPad Prism.

Row | SMILES | Ki
25 | COc1ccc(-c2cn(CCCCc3cn(Cc4cnc(C)nc4N)nn3)nn2)cc1 [Compound 17c] | 30 nM

same assay, conditions: [Compound] = 250 μM, [ThDP] = 50 μM

Row | SMILES | Inhibition (%) PDHc E1
26 | COc1ccc(-c2cn(CCCCc3cn(Cc4cnc(C)nc4N)nn3)nn2)cc1 [Compound 17c] | > 90%
27 | Cc1ncc(Cn2cc(CCn3cc(-c4ccc(F)cc4)nn3)nn2)c(N)n1 [Compound 16a] | 42 ± 2%
28 | Cc1ncc(Cn2cc(CCNS(=O)(=O)C(F)(F)F)nn2)c(N)n1 [Compound 18a] | 50 ± 2%
29 | Cc1ncc(Cn2cc(CCC(=O)Nc3ccccc3N)nn2)c(N)n1 [Compound 26a] | 75 ± 5%
30 | Cc1ncc(Cn2cc(CCCCNS(=O)(=O)C(F)(F)F)nn2)c(N)n1 [Compound 18c] | 71 ± 3%
31 | Cc1ncc(Cn2cc(CCCn3cc(-c4ccccc4)nn3)nn2)c(N)n1 [Compound 15b] | 65 ± 4%
32 | Cc1ncc(Cn2cc(CCO)nn2)c(N)n1 [Compound 9a] | 55 ± 2%
33 | COc1cccc(C(=O)NCCCCc2cn(Cc3cnc(C)nc3N)nn2)c1 [Compound 21c] | 60 ± 5%
34 | Cc1ncc(Cn2cc(CCCO)nn2)c(N)n1 [Compound 9b] | 52 ± 3%

same assay, conditions: binding energy in kcal mol^–1 derived from the KI value per heavy atom

Row | SMILES | L.E. (ligand efficiency) PDHc E1
35 | COc1ccc(-c2cn(CCCCc3cn(Cc4cnc(C)nc4N)nn3)nn2)cc1 [Compound 17c] | 0.34

same assay, conditions: increased ThDP: [Compound] = 250 μM, [ThDP] = 125 μM

Row | SMILES | Inhibition (%) PDHc E1
36 | COc1ccc(-c2cn(CCCCc3cn(Cc4cnc(C)nc4N)nn3)nn2)cc1 [Compound 17c] | 82 ± 4%
37 | Cc1ncc(Cn2cc(CCn3cc(-c4ccc(F)cc4)nn3)nn2)c(N)n1 [Compound 16a] | <20%
38 | Cc1ncc(Cn2cc(CCCn3cc(-c4ccccc4)nn3)nn2)c(N)n1 [Compound 15b] | 40 ± 4%
